Measurements: article PMC5730592, “Parallelogram based approach for in vivo dose estimation of genotoxic metabolites in humans with relevance to reduction of animal experiments” (Scientific Reports, 2017)
“And” between values parts separate entries of the source, which are not always exact repeats. Equal entries are not always repeated. Where two headings read alike, the source gives them in different places.

What was measured:
in vitro = settings: for Vmax (SE), GA elimination: GA 2–50 μM, 10 min, pH 7.5, 37 °C, n = 7 × 2; for EE = Vmax/Km, GA elimination / Km: male, pH 7.5
Method: As the parameters Vmax and Km were determined by the same experimental setup, the enzyme efficiency (EE) for the metabolic reactions is calculated as the ratio of Vmax to Km.
The metabolic system was similar to that we used in our earlier work[20] and is described in Supplementary information Note 1. […] The mixture was centrifuged (500 × g, 4 min) and supernatant treated as described below.
The supernatant (300 μL) obtained following centrifugation in the metabolism experiments was added to a cob(I)alamin solution (200 μL) in water. The reaction was continued under argon atmosphere for 20 min, and subsequently a gentle stream of air was passed to oxidize any reduced cobalamin. Analysis of the solution was performed by liquid chromatography tandem mass spectrometry (LC-MS/MS). The MS was operated using electrospray positive-ionization (ESI^+) and quantification performed using multiple reaction monitoring (MRM) mode. Method for preparation of cob(I)alamin solution from hydroxocobalamin and analysis of the generated alkylcobalamins, GA-Cbl from GA and PO-Cbl from PO, were similar to our earlier work[8] and are described under Supplementary information Notes 2–4.
The area under MRM peaks from GA-Cbl and PO-Cbl were measured with Analyst software version 1.5 from AB Sciex. Using calibration curve obtained for GA using inactivated S9 as matrix, the concentrations of GA in the metabolism studies were determined as described earlier by us[8]. The metabolic data was used to obtain Lineweaver-Burk plot for graphical representation of studied enzyme kinetics. Apparent values for the respective maximum velocity (Vmax) of the enzymatic conversion, the Michaelis constant (Km) and standard error were estimated by nonlinear fitting using the Hill function in Origin version 2015 (OriginLab, Northampton, MA, USA).
To human or rat liver S9 fraction (150 μL, 1–5 mg proteins) at 4 °C in a 2 mL vial with a screw-tight cap were added aqueous KCl (0.15 M, 300 μL), MgSO4 (80 mM, 150 μL), glucose-6-phosphate (50 mM, 150 μL) and NADP (40 mM, 150 μL), and the volume was made up to 1.5 mL with pH 7.5 phosphate buffer. The mixture was incubated for 5 min at 37 °C prior to the addition of the substrate.

[1] = In vivo dose (AUC) in rat calculated from measured Hb adduct levels after AA exposure; settings: from Hb adduct levels
Method: The in vivo dose or AUC of a compound in blood is the concentration integrated over time (Eq. 2).2 AUC=∫tC(t)dt A method to infer the AUC of an electrophilic compound or metabolite from measured Hb adduct levels (A) has been developed and established by our research group for quantitative monitoring of exposure in humans or for application in animal studies[1],[3]. When Hb adduct formation is measured a short time after a single acute exposure, or after incubation in vitro, AUC can be calculated using Eq. 3. This equation is based on A, and the second-order reaction rate constant (kNu) for the formation of an adduct to a nucleophilic site in Hb from the concerned electrophile.3 AUC=A/kNu
For calculating the daily AUC from a longer duration of exposure, the daily adduct level increments (a) have to be calculated considering the accumulation and elimination of adducts due to lifetime of the erythrocytes (t er). […] From continuous or subchronic exposure when the exposure time (t) is shorter than t er, the accumulated adduct level is calculated [a × t × (1 − t/2t er)][49].
For in vivo data on AUC of AA and of GA from AA exposure in rats, a study on short-term oral exposure of rats was used[24]. […] Blood samples were collected and AA- and GA-adducts to N-terminal valine in Hb were measured as described above, and recalculated to the daily increment of the adduct level. […]

[2] = cited from earlier work
[3] = set-up: method as in PMID 15668111; settings: 37 °C; cited from earlier work
[4] = male rat, different AA exposure studies, various methods; cited from earlier work

## NC(=O)C1CO1 (racemic) [GA, rac-Glycidamide]
In vitro; Human S9
  Vmax (SE), GA elimination: 1.6 (0.7) nmol·mg protein^−1·min^−1
In vitro; Rat S9 (male SD)
  Vmax (SE), GA elimination: 0.26 (0.02) nmol·mg protein^−1·min^−1
In vitro; liver S9, human vs. rat
  EE of elimination of GA, human compared to rat (times faster in human): ca. 1.5 times
In vitro; liver S9, rat vs. human
  EE of oxidative formation of GA, rat compared to human (times faster in rat): ca. 4 times
  EE ratio of AA → GA to that of GAel, rat compared to human (times higher in rat): ca. 6 times
In vitro; Sprague-Dawley, rat
  EE = Vmax/Km, GA elimination: 43 μL·mg protein^−1·min^−1
  Km: 6 µM
In vitro; human
  EE = Vmax/Km, GA elimination: 62 μL·mg protein^−1·min^−1
  Km: 26 µM
[1]
  ratio between species (rat-to-human) of AUC-GA per AUC-AA: 2.3
[2]; Human, AA-rich food 4 days, 11 μg AA/kg bw, adducts to N-terminal valine
  daily Hb adduct level increment per exposure dose: 1.02 pmol/g globin per μg AA/kg bw and day
[2]; Human, ca. 11 μg AA/kg bw and day through food, 4 days, n = 9, from Hb adducts
  AUC-GA: 49 nM·h/μg AA per kg bw and 49 ± 17 nM·h/μg AA per kg bw
[2]; Humans, ca. 2.5 μg AA/kg bw daily through food, 28 days, n = 9, ref Vikström et al. (2011)
  AUC-GA: 21 nM·h/ μg AA per kg bw
[2]; Humans, single dose in drinking water 500, 1000 and 3000 µg AA/kg bw, n = 6 males, ref Fennell et al. (2005)
  AUC-GA: 60 nM·h/ μg AA per kg bw
[3]
  half-life of hydrolysis of GA in an aqueous solution: 43 h
  rate of hydrolysis of GA in an aqueous solution: 0.016 h⁻¹
[4]
  range of AUC-GA: 13–52 nM·h per μg AA per kg bw
